According to PMC5218480 (PLoS ONE, 2017):

Test system: MV-4-11 cells
Experiment: Gene expression microarray analysis (Affymetrix PrimeView) and GSEA
Assay type: cell-based, human
Set-up: RFU PODN (11730768_x_at) / Fold change /veh PODN (11730768_x_at) / RFU LINC00158 (11744669_a_at) / Fold change /veh LINC00158 (11744669_a_at) / RFU DUSP10 (11751237_a_at) / Fold change /veh DUSP10 (11751237_a_at) / RFU ID3 (11757404_x_at) / Fold change /veh ID3 (11757404_x_at) / RFU PLEKHG5 (11737974_s_at) / Fold change /veh PLEKHG5 (11737974_s_at) / RFU LRRC4B (11730491_at) / Fold change /veh LRRC4B (11730491_at) / RFU GIMAP4 (11747438_a_at) / Fold change /veh GIMAP4 (11747438_a_at) / RFU KRT8 (11758183_x_at) / Fold change /veh KRT8 (11758183_x_at) / RFU CNN1 (11734310_a_at) / Fold change /veh CNN1 (11734310_a_at) / RFU VPS37D (11726825_at) / Fold change /veh VPS37D (11726825_at) / RFU C10orf10 (11716522_x_at) / Fold change /veh C10orf10 (11716522_x_at) / RFU KIR2DL2 /// KIR2DL4 /// KIR2DL5A /// KIR2DL5B /// KIR2DS1 /// KIR2DS2 /// KIR2DS3 /// KIR2DS4 /// KIR3DL3 /// KIR3DL3 /// KIR3DS1 (11738374_at) / Fold change /veh KIR2DL2 /// KIR2DL4 /// KIR2DL5A /// KIR2DL5B /// KIR2DS1 /// KIR2DS2 /// KIR2DS3 /// KIR2DS4 /// KIR3DL3 /// KIR3DL3 /// KIR3DS1 (11738374_at) / RFU C1QL1 (11718748_at) / Fold change /veh C1QL1 (11718748_at) / RFU TMPRSS4 (11747572_a_at) / Fold change /veh TMPRSS4 (11747572_a_at) / RFU HAMP (11756126_x_at) / Fold change /veh HAMP (11756126_x_at) / RFU RNFT2 (11725882_a_at) / Fold change /veh RNFT2 (11725882_a_at) / RFU NR4A2 (11747474_a_at) / Fold change /veh NR4A2 (11747474_a_at) / RFU ABCC12 (11746883_a_at) / Fold change /veh ABCC12 (11746883_a_at) / RFU TMEM136 (11760407_x_at) / Fold change /veh TMEM136 (11760407_x_at) / RFU CLDN22 /// WWC2 (11732394_at) / Fold change /veh CLDN22 /// WWC2 (11732394_at) / RFU HLA-DPB1 (11760878_x_at) / Fold change /veh HLA-DPB1 (11760878_x_at) / RFU SPINT1 (11716480_a_at) / Fold change /veh SPINT1 (11716480_a_at) / RFU GAP43 (11754022_s_at) / Fold change /veh GAP43 (11754022_s_at) / RFU A4GNT (11735810_at) / Fold change /veh A4GNT (11735810_at) / RFU PRB3 (11715151_x_at) / Fold change /veh PRB3 (11715151_x_at) / RFU TUBB4B (11761932_at) / Fold change /veh TUBB4B (11761932_at) / RFU CAPN14 (11732068_a_at) / Fold change /veh CAPN14 (11732068_a_at) / RFU TMCC2 (11721928_a_at) / Fold change /veh TMCC2 (11721928_a_at) / RFU IRGQ (11745062_a_at) / Fold change /veh IRGQ (11745062_a_at) / RFU FAM174B (11720279_a_at) / Fold change /veh FAM174B (11720279_a_at) / RFU TMPRSS4 (11748680_a_at) / Fold change /veh TMPRSS4 (11748680_a_at) / RFU FAM212B (11763350_a_at) / Fold change /veh FAM212B (11763350_a_at) / RFU PLEKHG5 (11743358_a_at) / Fold change /veh PLEKHG5 (11743358_a_at) / RFU ZSCAN30 (11745921_a_at) / Fold change /veh ZSCAN30 (11745921_a_at) / RFU CMKLR1 (11741424_a_at) / Fold change /veh CMKLR1 (11741424_a_at) / RFU LOC101060620 /// MAPK8IP1 (11723275_at) / Fold change /veh LOC101060620 /// MAPK8IP1 (11723275_at) / RFU SPTSSB (11747773_x_at) / Fold change /veh SPTSSB (11747773_x_at) / RFU PRSS12 (11739890_at) / Fold change /veh PRSS12 (11739890_at) / RFU BIN1 (11741810_x_at) / Fold change /veh BIN1 (11741810_x_at) / RFU WNT11 (11732464_a_at) / Fold change /veh WNT11 (11732464_a_at) / RFU C10orf10 (11716521_a_at) / Fold change /veh C10orf10 (11716521_a_at) / RFU C5orf56 (11738089_at) / Fold change /veh C5orf56 (11738089_at) / RFU CYB561 (11721691_x_at) / Fold change /veh CYB561 (11721691_x_at) / RFU ANKRD19P (11752326_a_at) / Fold change /veh ANKRD19P (11752326_a_at) / RFU OR2T12 /// OR2T33 /// OR2T8 (11738714_s_at) / Fold change /veh OR2T12 /// OR2T33 /// OR2T8 (11738714_s_at) / RFU VCAN (11748164_a_at) / Fold change /veh VCAN (11748164_a_at) / RFU JSRP1 (11732532_at) / Fold change /veh JSRP1 (11732532_at) / RFU KRTAP10-11 (11738290_x_at) / Fold change /veh KRTAP10-11 (11738290_x_at) / RFU MYO3A (11730013_a_at) / Fold change /veh MYO3A (11730013_a_at) / RFU EBF3 (11725865_a_at) / Fold change /veh EBF3 (11725865_a_at) / RFU CAMK2N1 (11719241_x_at) / Fold change /veh CAMK2N1 (11719241_x_at) / RFU C5orf56 (11738088_a_at) / Fold change /veh C5orf56 (11738088_a_at) / RFU OLFML3 (11715873_a_at) / Fold change /veh OLFML3 (11715873_a_at) / RFU LOC100653217 /// NTM (11731650_a_at) / Fold change /veh LOC100653217 /// NTM (11731650_a_at) / RFU MAPK11 (11762145_a_at) / Fold change /veh MAPK11 (11762145_a_at) / RFU FIZ1 (11724087_x_at) / Fold change /veh FIZ1 (11724087_x_at) / RFU OASL (11726364_x_at) / Fold change /veh OASL (11726364_x_at) / RFU SOX15 (11748057_x_at) / Fold change /veh SOX15 (11748057_x_at) / RFU CD79A (11719716_a_at) / Fold change /veh CD79A (11719716_a_at) / RFU HIST1H1D (11736915_at) / Fold change /veh HIST1H1D (11736915_at) / RFU CASKIN2 (11723855_a_at) / Fold change /veh CASKIN2 (11723855_a_at) / RFU LOC730098 (11760151_x_at) / Fold change /veh LOC730098 (11760151_x_at) / RFU OR4N2 (11742367_at) / Fold change /veh OR4N2 (11742367_at) / RFU PRRT2 (11749266_a_at) / Fold change /veh PRRT2 (11749266_a_at) / RFU SNX32 (11753110_a_at) / Fold change /veh SNX32 (11753110_a_at) / RFU CDHR5 (11726645_a_at) / Fold change /veh CDHR5 (11726645_a_at) / RFU RCAN1 (11760418_a_at) / Fold change /veh RCAN1 (11760418_a_at) / RFU FAM167A (11723789_a_at) / Fold change /veh FAM167A (11723789_a_at) / RFU FAM26E (11764081_at) / Fold change /veh FAM26E (11764081_at) / RFU ISYNA1 (11749810_s_at) / Fold change /veh ISYNA1 (11749810_s_at) / RFU ACY1 (11761880_at) / Fold change /veh ACY1 (11761880_at) / RFU 11764098_at / Fold change /veh 11764098_at / RFU SAMD14 (11745864_x_at) / Fold change /veh SAMD14 (11745864_x_at) / RFU NPB (11741838_a_at) / Fold change /veh NPB (11741838_a_at) / RFU TMPRSS6 (11731388_a_at) / Fold change /veh TMPRSS6 (11731388_a_at) / RFU KRTAP10-2 (11738614_at) / Fold change /veh KRTAP10-2 (11738614_at) / RFU ARHGAP8 /// PRR5-ARHGAP8 (11727945_x_at) / Fold change /veh ARHGAP8 /// PRR5-ARHGAP8 (11727945_x_at) / RFU KRTAP5-7 /// NADSYN1 (11734609_at) / Fold change /veh KRTAP5-7 /// NADSYN1 (11734609_at) / RFU RASL12 (11751679_a_at) / Fold change /veh RASL12 (11751679_a_at) / RFU CDKN2B (11736163_a_at) / Fold change /veh CDKN2B (11736163_a_at) / RFU PRF1 (11729649_at) / Fold change /veh PRF1 (11729649_at) / RFU, ZNF638 /// ZNF638-IT1 / Fold change vs veh, ZNF638 /// ZNF638-IT1 / RFU, PANK3 / Fold change vs veh, PANK3 / RFU, SH3YL1 / Fold change vs veh, SH3YL1 / RFU, ZEB2 / Fold change vs veh, ZEB2 / RFU, NRIP1 / Fold change vs veh, NRIP1 / RFU, PTTG1IP / Fold change vs veh, PTTG1IP / RFU, CAPN2 / Fold change vs veh, CAPN2 / RFU, MED14 / Fold change vs veh, MED14 / RFU, SNORA58 / Fold change vs veh, SNORA58 / RFU, C1orf63 / Fold change vs veh, C1orf63 / RFU, LRRFIP1 / Fold change vs veh, LRRFIP1 / RFU, NDUFAF7 / Fold change vs veh, NDUFAF7 / RFU, SLC12A2 / Fold change vs veh, SLC12A2 / RFU, IBTK / Fold change vs veh, IBTK / RFU, ESF1 / Fold change vs veh, ESF1 / Fold change vs veh, TMEM50B / RFU, TAOK1 / Fold change vs veh, TAOK1 / RFU, ACBD3 / Fold change vs veh, ACBD3 / RFU, TMA16 / Fold change vs veh, TMA16 / RFU, RWDD3 / Fold change vs veh, RWDD3 / RFU, BCAT1 / Fold change vs veh, BCAT1 / RFU, EDEM3 / Fold change vs veh, EDEM3 / RFU, TMEM33 / Fold change vs veh, TMEM33 / RFU, WDR75 / Fold change vs veh, WDR75 / RFU, AHCTF1 / Fold change vs veh, AHCTF1 / RFU, TFRC / Fold change vs veh, TFRC / RFU, ZDHHC17 / Fold change vs veh, ZDHHC17 / RFU, NOM1 / Fold change vs veh, NOM1 / RFU, ARL8B / Fold change vs veh, ARL8B / RFU, ZBTB11 / Fold change vs veh, ZBTB11 / RFU, TAMM41 / Fold change vs veh, TAMM41 / RFU, KIAA1704 /// LOC100996395 / Fold change vs veh, KIAA1704 /// LOC100996395 / RFU, ING1 / Fold change vs veh, ING1 / RFU, TRMT61B / Fold change vs veh, TRMT61B / RFU, FUBP3 / Fold change vs veh, FUBP3 / RFU, TP53 / Fold change vs veh, TP53 / RFU, TNKS2 / Fold change vs veh, TNKS2 / RFU, ZFP14 / Fold change vs veh, ZFP14 / RFU, ACTR2 / Fold change vs veh, ACTR2 / RFU, PPP3R1 / Fold change vs veh, PPP3R1 / RFU, PIK3R1 / Fold change vs veh, PIK3R1 / RFU, HNRNPA1 / Fold change vs veh, HNRNPA1 / RFU, RNF170 / Fold change vs veh, RNF170 / RFU, ZNF28 / Fold change vs veh, ZNF28 / RFU, RNGTT / Fold change vs veh, RNGTT / RFU, OGT / Fold change vs veh, OGT / RFU, BRD1 / Fold change vs veh, BRD1 / RFU, MARS / Fold change vs veh, MARS / RFU, ZNF655 / Fold change vs veh, ZNF655 / RFU, FAHD1 / Fold change vs veh, FAHD1 / RFU, BDP1 / Fold change vs veh, BDP1 / RFU, LRRCC1 / Fold change vs veh, LRRCC1 / RFU, ARID1A / Fold change vs veh, ARID1A / RFU, ZNF146 / Fold change vs veh, ZNF146 / RFU, ZNF330 / Fold change vs veh, ZNF330 / RFU, GPN3 / Fold change vs veh, GPN3 / RFU, C9orf123 / Fold change vs veh, C9orf123 / RFU, N4BP2L2 / Fold change vs veh, N4BP2L2 / RFU, ARFIP1 / Fold change vs veh, ARFIP1 / RFU, FAM179B / Fold change vs veh, FAM179B / RFU, BCL10 / Fold change vs veh, BCL10 / RFU, UHRF1BP1L / Fold change vs veh, UHRF1BP1L / RFU, BET1 / Fold change vs veh, BET1 / RFU, CNOT2 / Fold change vs veh, CNOT2 / RFU, ZNF268 / Fold change vs veh, ZNF268 / Fold change vs veh, ZNF507 / RFU, DGCR2 / Fold change vs veh, DGCR2 / RFU, WDSUB1 / Fold change vs veh, WDSUB1 / Fold change vs veh, HSP90B1 /// MIR3652 / RFU, ADSS / Fold change vs veh, ADSS / RFU, GK / Fold change vs veh, GK / RFU, ZNF148 / Fold change vs veh, ZNF148 / RFU, TAF9 / Fold change vs veh, TAF9 / RFU, SLC1A5 / Fold change vs veh, SLC1A5 / RFU, SLMO2 / Fold change vs veh, SLMO2 / RFU, ABCC4 / Fold change vs veh, ABCC4 / RFU, LOC101060439 /// RAP1B / Fold change vs veh, LOC101060439 /// RAP1B / RFU, RFX7 / Fold change vs veh, RFX7 / RFU, GTPBP10 / Fold change vs veh, GTPBP10 / RFU, CNEP1R1 / Fold change vs veh, CNEP1R1 / RFU, BIVM-ERCC5 /// ERCC5 / Fold change vs veh, BIVM-ERCC5 /// ERCC5 / RFU, ILF3 / Fold change vs veh, ILF3 / RFU 11762660_at / Fold change /veh 11762660_at / RFU VCAN (11757783_s_at) / Fold change /veh VCAN (11757783_s_at) / RFU DDX43 (11728927_at) / Fold change /veh DDX43 (11728927_at) / RFU KRT8 (11758188_x_at) / Fold change /veh KRT8 (11758188_x_at) / RFU NKD1 (11759106_at) / Fold change /veh NKD1 (11759106_at) / RFU SRD5A1 (11742802_a_at) / Fold change /veh SRD5A1 (11742802_a_at) / RFU TPSAB1 /// TPSB2 (11721975_s_at) / Fold change /veh TPSAB1 /// TPSB2 (11721975_s_at) / RFU GSTM3 (11746129_a_at) / Fold change /veh GSTM3 (11746129_a_at) / RFU IL23R (11737362_x_at) / Fold change /veh IL23R (11737362_x_at) / RFU TMEM51 (11727254_a_at) / Fold change /veh TMEM51 (11727254_a_at) / RFU PIWIL2 (11732686_x_at) / Fold change /veh PIWIL2 (11732686_x_at) / RFU ORM1 (11744905_x_at) / Fold change /veh ORM1 (11744905_x_at) / RFU CCDC152 (11743942_at) / Fold change /veh CCDC152 (11743942_at) / RFU ECM1 (11717891_a_at) / Fold change /veh ECM1 (11717891_a_at) / RFU IL23R (11748794_a_at) / Fold change /veh IL23R (11748794_a_at) / RFU TNFAIP8L3 (11732012_x_at) / Fold change /veh TNFAIP8L3 (11732012_x_at) / RFU MBOAT4 (11741988_at) / Fold change /veh MBOAT4 (11741988_at) / RFU 11764193_at / Fold change /veh 11764193_at / RFU TMEM53 (11763286_at) / Fold change /veh TMEM53 (11763286_at) / RFU MAGEB2 (11727129_at) / Fold change /veh MAGEB2 (11727129_at) / RFU TMEM200A (11744735_a_at) / Fold change /veh TMEM200A (11744735_a_at) / RFU CCDC152 (11751479_a_at) / Fold change /veh CCDC152 (11751479_a_at) / RFU FAM211A (11726209_a_at) / Fold change /veh FAM211A (11726209_a_at) / RFU RGS16 (11746705_a_at) / Fold change /veh RGS16 (11746705_a_at) / RFU VCAN (11755009_s_at) / Fold change /veh VCAN (11755009_s_at) / RFU RHOB (11743442_s_at) / Fold change /veh RHOB (11743442_s_at) / RFU RGS16 (11720943_a_at) / Fold change /veh RGS16 (11720943_a_at) / RFU RGS16 (11720944_at) / Fold change /veh RGS16 (11720944_at) / RFU, VPS4B / Fold change vs veh, VPS4B / RFU, CREB1 / Fold change vs veh, CREB1 / RFU, DNAJC13 / Fold change vs veh, DNAJC13 / RFU, GNAQ / Fold change vs veh, GNAQ / RFU, CDK5R1 / Fold change vs veh, CDK5R1 / RFU, ZRANB3 / Fold change vs veh, ZRANB3 / RFU, CUL4A / Fold change vs veh, CUL4A / RFU, CCNY / Fold change vs veh, CCNY / RFU, UFL1 / Fold change vs veh, UFL1 / RFU, COG3 / Fold change vs veh, COG3 / RFU, DIAPH2 / Fold change vs veh, DIAPH2 / RFU, SKA2 / Fold change vs veh, SKA2 / RFU, AFF3 / Fold change vs veh, AFF3 / RFU, LMF1 / Fold change vs veh, LMF1 / RFU, IPO11 / Fold change vs veh, IPO11 / RFU, DFFB / Fold change vs veh, DFFB / RFU, FOXP1 / Fold change vs veh, FOXP1 / RFU, CARD8 / Fold change vs veh, CARD8 / RFU, STRN3 / Fold change vs veh, STRN3 / RFU, ADK / Fold change vs veh, ADK / RFU, RASSF2 / Fold change vs veh, RASSF2 / RFU, WIPF1 / Fold change vs veh, WIPF1 / RFU, LARP1B / Fold change vs veh, LARP1B / RFU, RASA1 / Fold change vs veh, RASA1 / RFU, RB1 / Fold change vs veh, RB1 / RFU, PPFIA1 / Fold change vs veh, PPFIA1 / RFU, MAT2A / Fold change vs veh, MAT2A / RFU, CCT5 / Fold change vs veh, CCT5 / RFU, WDR92 / Fold change vs veh, WDR92 / RFU, CUX1 / Fold change vs veh, CUX1 / RFU, TTC7A / Fold change vs veh, TTC7A / RFU, TMEM135 / Fold change vs veh, TMEM135 / RFU, DEPTOR / Fold change vs veh, DEPTOR / RFU, CPM / Fold change vs veh, CPM / RFU, DNAJB6 / Fold change vs veh, DNAJB6 / RFU, CACNA2D3 / Fold change vs veh, CACNA2D3 / RFU, DTX4 / Fold change vs veh, DTX4 / RFU, TFCP2 / Fold change vs veh, TFCP2 / RFU, GMCL1 /// GMCL1P1 / Fold change vs veh, GMCL1 /// GMCL1P1 / RFU, AEBP2 / Fold change vs veh, AEBP2 / RFU, SNHG1 /// SNORD22 /// SNORD25 /// SNORD26 /// SNORD27 /// SNORD28 /// SNORD29 /// SNORD31 / Fold change vs veh, SNHG1 /// SNORD22 /// SNORD25 /// SNORD26 /// SNORD27 /// SNORD28 /// SNORD29 /// SNORD31 / Fold change (Aza/veh), C12orf56 (ProbeSet 11735607_a_at) / Fold change (ACY-1035/veh), C12orf56 (ProbeSet 11735607_a_at) / Fold change (Aza/veh), FGFR1OP (ProbeSet 11751329_s_at) / Fold change (ACY-1035/veh), FGFR1OP (ProbeSet 11751329_s_at) / Fold change (Aza/veh), VPS36 (ProbeSet 11739960_a_at) / Fold change (ACY-1035/veh), VPS36 (ProbeSet 11739960_a_at) / RFU SYPL1 (11715823_x_at) / Fold change /veh SYPL1 (11715823_x_at) / RFU IGFBP7 (11715501_s_at) / Fold change /veh IGFBP7 (11715501_s_at) / RFU REEP3 (11722064_at) / Fold change /veh REEP3 (11722064_at) / RFU IGLL1 (11728026_x_at) / Fold change /veh IGLL1 (11728026_x_at): dose or concentration left out as unconfirmed
Settings: MV-4-11 cells, 48 hours

Compound: Nc1ccc(-c2cccs2)cc1NC(=O)c1ccc2c(c1)cc(C1CC1)n2CCN1CCOCC1 [ACY-1035]
- RFU NPB (11741838_a_at): 77.64 RFU
